We go through 2 compounds from ChEMBL document CHEMBL5523731, “Bitopic Ligands Support the Presence of a Metastable Binding Site at the β2 Adrenergic Receptor” (J Med Chem, 2024).

Assay [1] has as its target T1, Beta-2 adrenergic receptor (Homo sapiens, UniProt P07550). The assay can be described thus: Antagonist activity at beta-2 AR (unknown origin) overexpressed in HEK293 cell membrane assessed as inhibition of ISO-induced cAMP production at EC80 preincubated for 15 mins followed by agonist addition measured after 30 mins by TR-FRET assay. A general note: Changes in cAMP serve as a functional read-out for many G protein-coupled receptors.

Assay [2] deals with T1, Beta-2 adrenergic receptor. The assay can be described thus: Displacement of [3H]-DHA from beta-2 AR (unknown origin) overexpressed in HEK293 cell membrane assessed as inhibition constant incubated for 90 mins by liquid scintillation analysis. Background: In a radioligand displacement assay an active substance lowers the binding of a labelled ligand.
For assay [3], the target named is T1, Beta-2 adrenergic receptor. The assay can be described thus: Displacement of [3H]-DHA from beta-2 AR (unknown origin) overexpressed in HEK293 cell membrane assessed as dissociation constant (K) incubated for 90 mins by liquid scintillation analysis.

T1 sequence (P07550 whole entry): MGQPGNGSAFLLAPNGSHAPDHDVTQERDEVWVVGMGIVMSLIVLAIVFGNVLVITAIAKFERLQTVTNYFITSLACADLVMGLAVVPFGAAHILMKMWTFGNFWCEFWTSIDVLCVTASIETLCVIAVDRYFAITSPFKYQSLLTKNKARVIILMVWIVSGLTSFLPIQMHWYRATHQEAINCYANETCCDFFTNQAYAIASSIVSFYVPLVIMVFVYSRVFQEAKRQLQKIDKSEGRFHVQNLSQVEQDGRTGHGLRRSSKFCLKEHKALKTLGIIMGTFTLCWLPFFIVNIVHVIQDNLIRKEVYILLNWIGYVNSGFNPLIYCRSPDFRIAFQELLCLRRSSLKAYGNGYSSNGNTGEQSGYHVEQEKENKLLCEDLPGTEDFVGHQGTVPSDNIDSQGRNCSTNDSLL

Broadly, the IC50 is the point on the concentration scale where inhibition reaches its midpoint. Turning to `CC(C)NC[C@H](O)COc1ccc(CCCN=[N+]=[N-])cc1`, in assay [1], the IC50 is 3980 nM.
As a reminder, the Ki is the dissociation constant of the complex between target and ligand, obtained from inhibition or displacement. By Kd is commonly meant the free concentration of one partner at which half of the binding sites on the other are occupied at equilibrium, for simple one-to-one binding. In the case of `CC(C)NC[C@H](O)COc1ccc(CCCCN=[N+]=[N-])cc1`, in assay [1], the IC50 is 4790 nM. For the same compound, the Ki in assay [2] was 389 nM. The Kd in assay [3] is 589 nM.
